Our source for the inhibition values is patent publication US11746103B2, “ALK-5 inhibitors and uses thereof” (Sumitomo Pharma Oncology, Inc., priority 2020, dated 2023).

The test deals with pSmad2 in KGN cells. The experiment in a line: pSmad2 Luminex assay in KGN cell line. It counts as cell-based. The settings on record: 2 hours, read-out: pSmad2 pathway inhibition. The procedure: KGN cells were incubated with three 10-fold dilutions of EX-11 or DMSO for 2 hours. Cells were harvested and lysed, and protein concentration was quantified by BCA. 10 μg of total protein was added to the assay plate provided in the Milliplex TGFβ 6-plex kit with GAPDH MapMate beads, and the manufacturer's protocol was followed. Data was collected on the MagPix Xmap (Luminex).

On to `Cc1cccc2c(Nc3ccnc(Nc4cccc(N5CCOCC5)c4)n3)cnnc12` [EX-11, N4-(8-methylcinnolin-4-yl)-N2-(3-morpholinophenyl)pyrimidine-2,4-diamine], for which the inhibition at 0.01 µM (Homo sapiens, 10 nM) worked out at 17%. In addition, the inhibition at 0.1 µM (Homo sapiens, 100 nM) was determined as 74%. Also, under “Homo sapiens, 1,000 nM”, the inhibition at 1 µM is 97%.

A word on the inhibition: it is the relative decrease from the control value, in per cent.
